Measured values from the CheMixHub ionic liquid set.
± gives the uncertainty stated by the source.

Assay: xn = mol fraction of the nth substance listed

O + CC[n+]1ccn(C)c1.CS(=O)(=O)[O-]
electrical conductivity (298.15 K, 100 kPa, x1 = 1): 0.00023 ± 1e-05 S/m | electrical conductivity (323.15 K, 100 kPa, frequency 0.003 MHz, x2 = 0): 0.0005 ± 0.0001 S/m | electrical conductivity (333.15 K, 100 kPa, frequency 0.003 MHz, x2 = 0): 0.0015 ± 0.0001 S/m

C1COCCO1 + CC[n+]1ccn(C)c1.F[B-](F)(F)F
viscosity (323.15 K, 100 kPa, x1 = 1): 0.814 ± 0.082 mPa·s | viscosity (343.15 K, 100 kPa, x1 = 1): 0.64 ± 0.064 mPa·s

CC[n+]1ccn(C)c1.N#C[N-]C#N + CC[n+]1ccn(C)c1.F[B-](F)(F)F
viscosity (298.1 K, 101 kPa, x2 = 0.0448): 17.2 ± 2.1 mPa·s | viscosity (298.1 K, 101 kPa, x2 = 0.6254): 27.9 ± 4.3 mPa·s | viscosity (298.1 K, 101 kPa, x2 = 0.7856): 31.4 ± 5.1 mPa·s | viscosity (298.1 K, 101 kPa, x2 = 0.9447): 34.7 ± 6 mPa·s

CCCCn1cc[n+](CCOCCOCC[n+]2ccn(CCCC)c2)c1.N#C[N-]C#N.N#C[N-]C#N + CC[n+]1ccn(C)c1.N#C[N-]C#N + O=S(=O)([N-]S(=O)(=O)C(F)(F)F)C(F)(F)F.[Li+]
electrical conductivity (298 K, 100 kPa, x1 = 0.2388, x2 = 0.6693): 0.505 ± 0.02 S/m | electrical conductivity (303 K, 100 kPa, x1 = 0.2388, x2 = 0.6693): 0.581 ± 0.023 S/m | electrical conductivity (313 K, 100 kPa, x1 = 0.2388, x2 = 0.6693): 0.847 ± 0.034 S/m | electrical conductivity (323 K, 100 kPa, x1 = 0.2388, x2 = 0.6693): 1.23 ± 0.049 S/m | electrical conductivity (333 K, 100 kPa, x1 = 0.2388, x2 = 0.6693): 1.53 ± 0.061 S/m | electrical conductivity (343 K, 100 kPa, x1 = 0.2388, x2 = 0.6693): 1.85 ± 0.074 S/m

CC1COC(=O)O1 (configuration not stated) + CC[n+]1ccn(C)c1.N#C[S-]
viscosity (293.15 K, 101.3 kPa, x2 = 0): 2.945 ± 0.066 mPa·s | viscosity (308.15 K, 101.3 kPa, x2 = 0): 1.919 ± 0.062 mPa·s | viscosity (333.15 K, 101.3 kPa, x2 = 0): 1.293 ± 0.061 mPa·s

CC[n+]1ccn(C)c1.N#C[N-]C#N + CC[n+]1ccn(C)c1.N#C[S-]
electrical conductivity (298.15 K, 100 kPa, x2 = 0.2585): 2.68 ± 0.11 S/m | viscosity (298.15 K, 100 kPa, x2 = 0.2585): 16.36 ± 0.69 mPa·s | electrical conductivity (308.15 K, 100 kPa, x2 = 0.2585): 3.45 ± 0.14 S/m | viscosity (308.15 K, 100 kPa, x2 = 0.2585): 12.4 ± 0.53 mPa·s | electrical conductivity (318.15 K, 100 kPa, x2 = 0): 4.52 ± 0.18 S/m | viscosity (318.15 K, 100 kPa, x2 = 0): 8.93 ± 0.37 mPa·s | electrical conductivity (318.15 K, 100 kPa, x2 = 0.7603): 4.01 ± 0.16 S/m | viscosity (318.15 K, 100 kPa, x2 = 0.7603): 11.79 ± 0.54 mPa·s | electrical conductivity (323.15 K, 100 kPa, x2 = 0.5112): 4.62 ± 0.19 S/m | viscosity (323.15 K, 100 kPa, x2 = 0.5112): 9.51 ± 0.42 mPa·s | viscosity (328.15 K, 100 kPa, x2 = 0.2585): 7.87 ± 0.33 mPa·s | viscosity (333.15 K, 100 kPa, x2 = 0): 6.37 ± 0.26 mPa·s | viscosity (338.15 K, 100 kPa, x2 = 0.2585): 6.49 ± 0.28 mPa·s | viscosity (348.15 K, 100 kPa, x2 = 0.5112): 5.87 ± 0.26 mPa·s | viscosity (353.15 K, 100 kPa, x2 = 0.7603): 5.7 ± 0.26 mPa·s

CC1COC(=O)O1 (configuration not stated) + CC[n+]1ccn(C)c1.O=S(=O)([N-]S(=O)(=O)C(F)(F)F)C(F)(F)F
viscosity (303.15 K, 101.3 kPa, x2 = 0): 2.246 ± 0.047 mPa·s | viscosity (318.15 K, 101.3 kPa, x2 = 0): 1.73 ± 0.037 mPa·s | viscosity (338.15 K, 101.3 kPa, x2 = 0): 1.294 ± 0.028 mPa·s

CCC[N+]1(C)CCCC1.O=S(=O)([N-]S(=O)(=O)C(F)(F)F)C(F)(F)F + CC[n+]1ccn(C)c1.O=S(=O)([N-]S(=O)(=O)C(F)(F)F)C(F)(F)F
electrical conductivity (293.15 K, 101 kPa, x2 = 0.5): 0.528 ± 0.053 S/m | viscosity (293.15 K, 101 kPa, x2 = 0.5): 53.4 ± 5.5 mPa·s | electrical conductivity (333.15 K, 101 kPa, x2 = 0): 1.18 ± 0.12 S/m | viscosity (333.15 K, 101 kPa, x2 = 0): 18.8 ± 1.9 mPa·s | electrical conductivity (353.15 K, 101 kPa, x2 = 0): 1.76 ± 0.18 S/m | viscosity (353.15 K, 101 kPa, x2 = 0): 11.6 ± 1.2 mPa·s

CC1COC(=O)O1 (configuration not stated) + CC[n+]1ccn(C)c1.O=S(=O)([O-])C(F)(F)F
viscosity (293.15 K, 101 kPa, x2 = 0): 2.94 ± 0.18 mPa·s | viscosity (343.15 K, 101 kPa, x2 = 0): 1.251 ± 0.076 mPa·s

[Br][Al]([Br])[Br] + CC[n+]1ccn(C)c1.[Br-]
electrical conductivity (298.15 K, 101.3 kPa, x1 = 0.35): 0.625 ± 0.063 S/m

NC(CO)CO + CC[n+]1ccn(C)c1.[Cl-]
viscosity (298.15 K, 101 kPa, x2 = 0.667): 297 ± 15 mPa·s | viscosity (303.15 K, 101 kPa, x2 = 0.667): 214 ± 10 mPa·s | viscosity (313.15 K, 101 kPa, x2 = 0.667): 115.9 ± 5.2 mPa·s | viscosity (323.15 K, 101 kPa, x2 = 0.667): 64.5 ± 2.8 mPa·s | viscosity (333.15 K, 101 kPa, x2 = 0.667): 41.4 ± 1.8 mPa·s

CC1COC(=O)O1 (configuration not stated) + CC[n+]1ccn(C)c1C.O=S(=O)([N-]S(=O)(=O)C(F)(F)F)C(F)(F)F
viscosity (308.15 K, 101.3 kPa, x2 = 0): 2.049 ± 0.043 mPa·s | viscosity (348.15 K, 101.3 kPa, x2 = 0): 1.14 ± 0.024 mPa·s
